Measured values as given in ChEMBL document CHEMBL1201862, “PubChem BioAssay data set” (2004).
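Test compounds were applied to cells in 96-well plates for 48 hours at 5 doses. GI50 is the concentration that inhibits growth by half.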 Activity calls are given as the source filed them. No stated cut-off is given here; in the data, active = GI50 up to about 1.1 µM and inactive = higher.

What was measured:
Test in all cases: growth of human tumour cells (NCI), 48 h
786-0 = tested on: 786-0
A498 = tested on: A498
A549 = tested on: A549
ACHN = tested on: ACHN
BT-549 = tested on: BT-549
CAKI-1 = tested on: CAKI-1
CCRF-CEM = tested on: CCRF-CEM
COLO 205 = tested on: COLO 205
DU-145 = tested on: DU-145
EKVX = tested on: EKVX
HCC 2998 = tested on: HCC 2998
HCT-116 = tested on: HCT-116
HCT-15 = tested on: HCT-15
HL-60 = tested on: HL-60
HOP-62 = tested on: HOP-62
HOP-92 = tested on: HOP-92
HT-29 = tested on: HT-29
Hs-578T = tested on: Hs-578T
IGROV-1 = tested on: IGROV-1
K562 = tested on: K562
KM12 = tested on: KM12
M14 = tested on: M14
MCF7 = tested on: MCF7
MDA-MB-231 = tested on: MDA-MB-231
MDA-MB-435 = tested on: MDA-MB-435
MDA-N = tested on: MDA-N
MOLT-4 = tested on: MOLT-4
Malme-3M = tested on: Malme-3M
NCI-H226 = tested on: NCI-H226
NCI-H23 = tested on: NCI-H23
NCI-H460 = tested on: NCI-H460
NCI-H522 = tested on: NCI-H522
NCI/ADR-RES = tested on: NCI/ADR-RES
OVCAR-3 = tested on: OVCAR-3
OVCAR-4 = tested on: OVCAR-4
OVCAR-5 = tested on: OVCAR-5
OVCAR-8 = tested on: OVCAR-8
PC-3 = tested on: PC-3
RPMI-8226 = tested on: RPMI-8226
RXF 393 = tested on: RXF 393
SF-268 = tested on: SF-268
SF-295 = tested on: SF-295
SF-539 = tested on: SF-539
SK-MEL-28 = tested on: SK-MEL-28
SK-MEL-2 = tested on: SK-MEL-2
SK-MEL-5 = tested on: SK-MEL-5
SK-OV-3 = tested on: SK-OV-3
SN12C = tested on: SN12C
SNB-19 = tested on: SNB-19
SR = tested on: SR
SW-620 = tested on: SW-620
T47D = tested on: T47D
TK-10 = tested on: TK-10
U-251 = tested on: U-251
UACC-257 = tested on: UACC-257
UACC-62 = tested on: UACC-62
UO-31 = tested on: UO-31
LOX IMVI = tested on: LOX IMVI
SNB-75 = tested on: SNB-75

SMILES: O=C(c1ccccc1)c1c(-c2ccccc2)[nH]n(-c2ccc([N+](=O)[O-])cc2)c(=O)c1=O
- GI50 (786-0): > 100 µM (inactive)
- GI50 (A498): > 100 µM (inactive)
- GI50 (A549): 38.5 µM (inactive)
- GI50 (ACHN): 99.1 µM (inactive)
- GI50 (BT-549): 27.6 µM (inactive)
- GI50 (CAKI-1): 87.3 µM (inactive)
- GI50 (CCRF-CEM): 47 µM (inactive)
- GI50 (COLO 205): > 100 µM (inactive)
- GI50 (DU-145): > 100 µM (inactive)
- GI50 (EKVX): 91 µM (inactive)
- GI50 (HCC 2998): 64.7 µM (inactive)
- GI50 (HCT-116): 53.2 µM (inactive)
- GI50 (HCT-15): 39.5 µM
- GI50 (HL-60): > 100 µM (inactive)
- GI50 (HOP-62): > 100 µM (inactive)
- GI50 (HOP-92): 16.8 µM (inactive)
- GI50 (HT-29): 36.6 µM (inactive)
- GI50 (Hs-578T): 0.504 µM (active)
- GI50 (IGROV-1): > 100 µM (inactive)
- GI50 (K562): 41.5 µM (inactive)
- GI50 (KM12): 94.8 µM (inactive)
- GI50 (M14): > 100 µM (inactive)
- GI50 (MCF7): 33.7 µM (inactive)
- GI50 (MDA-MB-231): 30.1 µM (inactive)
- GI50 (MDA-MB-435): 75.2 µM (inactive)
- GI50 (MDA-N): > 100 µM (inactive)
- GI50 (MOLT-4): 37.2 µM (inactive)
- GI50 (Malme-3M): > 100 µM (inactive)
- GI50 (NCI-H226): 39.7 µM (inactive)
- GI50 (NCI-H23): 0.2 µM (active)
- GI50 (NCI-H460): 37.2 µM (inactive)
- GI50 (NCI-H522): 23.4 µM (inactive)
- GI50 (NCI/ADR-RES): 49.5 µM (inactive)
- GI50 (OVCAR-3): 56.2 µM (inactive)
- GI50 (OVCAR-4): 25.8 µM (inactive)
- GI50 (OVCAR-5): > 100 µM (inactive)
- GI50 (OVCAR-8): 31.1 µM (inactive)
- GI50 (PC-3): 42.9 µM (inactive)
- GI50 (RPMI-8226): 43.9 µM (inactive)
- GI50 (RXF 393): > 100 µM (inactive)
- GI50 (SF-268): 40.2 µM (inactive)
- GI50 (SF-295): 46.8 µM (inactive)
- GI50 (SF-539): 28.8 µM (inactive)
- GI50 (SK-MEL-28): 21 µM (inactive)
- GI50 (SK-MEL-2): 21.1 µM (inactive)
- GI50 (SK-MEL-5): > 100 µM (inactive)
- GI50 (SK-OV-3): 36.9 µM (inactive)
- GI50 (SN12C): 57.3 µM (inactive)
- GI50 (SNB-19): 6.47 µM (inactive)
- GI50 (SR): 35.5 µM (inactive)
- GI50 (SW-620): 42.6 µM (inactive)
- GI50 (T47D): 81.8 µM (inactive)
- GI50 (TK-10): 91.8 µM (inactive)
- GI50 (U-251): 5.78 µM (inactive)
- GI50 (UACC-257): 41.5 µM (inactive)
- GI50 (UACC-62): < 0.01 µM (active)
- GI50 (UO-31): 32.1 µM (inactive)

SMILES: CCCN(CCC)C(=S)N/N=C(/C)c1ccccc1O
- GI50 (786-0): 3.32 µM (inactive)
- GI50 (A498): 14.3 µM (inactive)
- GI50 (A549): 5.64 µM (inactive)
- GI50 (ACHN): 3.97 µM (inactive)
- GI50 (BT-549): 5.25 µM (inactive)
- GI50 (CAKI-1): 8.49 µM (inactive)
- GI50 (CCRF-CEM): 2.96 µM (inactive)
- GI50 (COLO 205): 6.46 µM (inactive)
- GI50 (DU-145): 6.84 µM (inactive)
- GI50 (EKVX): 6.31 µM (inactive)
- GI50 (HCC 2998): 10.3 µM (inactive)
- GI50 (HCT-116): 4.04 µM (inactive)
- GI50 (HCT-15): 3.48 µM
- GI50 (HL-60): 3.96 µM (inactive)
- GI50 (HOP-62): 4.25 µM (inactive)
- GI50 (HOP-92): 15.9 µM (inactive)
- GI50 (HT-29): 6.28 µM (inactive)
- GI50 (Hs-578T): > 70 µM (inactive)
- GI50 (IGROV-1): 4.43 µM (inactive)
- GI50 (K562): 4.06 µM (inactive)
- GI50 (KM12): 4.98 µM (inactive)
- GI50 (LOX IMVI): 3.46 µM (inactive)
- GI50 (M14): 2.94 µM (inactive)
- GI50 (MCF7): 4.02 µM (inactive)
- GI50 (MDA-MB-231): 9.4 µM (inactive)
- GI50 (MDA-MB-435): 8.38 µM (inactive)
- GI50 (MDA-N): 9.77 µM (inactive)
- GI50 (MOLT-4): 4.04 µM (inactive)
- GI50 (Malme-3M): 3.2 µM (inactive)
- GI50 (NCI-H23): 12.1 µM (inactive)
- GI50 (NCI-H460): 2.51 µM (inactive)
- GI50 (NCI-H522): 1.19 µM (inactive)
- GI50 (NCI/ADR-RES): 1.57 µM (inactive)
- GI50 (OVCAR-3): 2.51 µM (inactive)
- GI50 (OVCAR-4): 5.96 µM (inactive)
- GI50 (OVCAR-5): 10.3 µM (inactive)
- GI50 (OVCAR-8): 3.42 µM (inactive)
- GI50 (PC-3): 5.94 µM (inactive)
- GI50 (RPMI-8226): 4.33 µM (inactive)
- GI50 (RXF 393): 23.6 µM (inactive)
- GI50 (SF-268): 4.42 µM (inactive)
- GI50 (SF-295): 6.41 µM (inactive)
- GI50 (SF-539): 4.06 µM (inactive)
- GI50 (SK-MEL-28): 7.28 µM (inactive)
- GI50 (SK-MEL-2): 6.7 µM (inactive)
- GI50 (SK-MEL-5): 5.81 µM (inactive)
- GI50 (SK-OV-3): 10.2 µM (inactive)
- GI50 (SN12C): 5.82 µM (inactive)
- GI50 (SNB-19): 14.3 µM (inactive)
- GI50 (SNB-75): 5.56 µM (inactive)
- GI50 (SR): 3.06 µM (inactive)
- GI50 (SW-620): 5.55 µM (inactive)
- GI50 (T47D): 3.61 µM (inactive)
- GI50 (TK-10): 6.19 µM (inactive)
- GI50 (U-251): 3.84 µM (inactive)
- GI50 (UACC-257): 7.71 µM (inactive)
- GI50 (UACC-62): 3.19 µM (inactive)
- GI50 (UO-31): 4.11 µM (inactive)
